Reference: patent US10822317B2, “Methods and compositions for wound healing” (QBiotics Limited, priority 2013, dated 2020)

Tested on: human PBMCs
Test: Gene expression (Illumina BeadChip) in human PBMCs
Format: cell-based
Conditions: 30 ng/mL
Procedure: Human peripheral blood mononuclear cells (PBMCs) were isolated by Ficoll-Paque sedimentation of heparinised blood from a human donor, and cultured in RPMI-1640 10% FCS. Following treatment with Compound 1 at 30 ng/mL, the monolayer was washed once with phosphate buffered saline (PBS) and the cells harvested with sterile scrapers and stored as pellets at −80° C.
RNA was extracted from 30 mg of frozen tumour or 1×10^7 cells using the QiagenRNeasyPlus Mini Kit, according to manufacturer's instructions, then quantitated with a NanoDrop instrument and integrity confirmed on denaturing agarose gels bearing a 1 kb DNA marker and stained with ethidium bromide.
Approximately 500 ng of total unlabelled RNA was adjusted to a final volume of 11 μL with nuclease-free water. The RNA was incubated with 9 μL of the reverse transcriptase master mix (1 μL of T7 Oligo (dT) Primer, 2 μL of 10× first strand buffer, 4 μL of dNTP mix, 1 μL of RNase inhibitor and 1 μL of ArrayScript) at 42° C. for 2 hr. This was followed by the second strand cDNA synthesis step which involved a further incubation at 16° C. for 2 hr with 80 µL of the second strand master mix (63 μL nuclease-free water, 10 μL 10× second strand buffer, 4 μL dNTP mix, […] and 1 μL RNase H). The cDNA was purified by filtering through a cDNA Filter Cartridge with 250 μL of cDNA binding buffer and washing with 500 μL of the wash buffer provided in the kit. Purified cDNA was eluted with 20 μL of 55° C. nuclease-free water. Each cDNA sample was incubated with 7.5 μL of the IVT master mix (2.5 μL of T7 10× reaction buffer, 2.5 μL of T7 enzyme mix and 2.5 μL biotin-NTP mix) at 37° C. for 16 hr. The reaction was stopped with the addition of 75 μL of nuclease-free water to each cRNA sample. The biotinylated, amplified RNA was purified by filtering the cRNA samples through cRNA Filter Cartridges with 350 μL of cRNA binding buffer and 250 μL of 100% ethanol mixed together prior to loading onto the filters. The cRNA filter cartridges with attached RNA were then washed with 650 μL of wash buffer before eluting purified cRNA with 200 μL of 55° C. nuclease-free water.
The cRNA samples were heated at 65° C. for 5 min and collected by pulse centrifugation. After heating at 65 degrees for 5 min, approximately 750 ng of the cRNA sample was aliquoted into separate tubes to which were added ˜5 μL of RNase-free water and 10 μL of Hyb Mix. Approximately 15 μL of the prepared cRNA mix was loaded onto the Illumina Expression BeadChips. Subsequent steps of hybridisation and washing were carried out according to the Whole-Genome Gene Expression Direct Hybridization Assay Guide supplied by Illumina.
The Human HT-12 v4 Expression BeadChips cover more than 47,000 transcripts and known splice variants across the human transcriptome. The MouseRef-8 v2.0 Expression BeadChips cover approximately 25,600 well-annotated RefSeq (Reference Sequence) transcripts, comprising over 19,000 unique genes.
BeadChips were read by the iScan System, and transferred via GenomeStudio into GeneSpring GX v12.5 (Agilent Technologies, Santa Clara, Calif., USA). The expression values were normalized using quantile normalization with default settings. The entities were filtered based on the detection score calculated by GenomeStudio where p≤0.05 was considered significant.
Human peripheral blood mononuclear cells (PBMCs) are rich in lymphocytes and macrophage precursors (monocytes) involved in the production of cytokines and tissue remodelling enzymes relevant to the wound healing process. […] It should therefore be noted that the genes shown in Table 14 illustrate the range of relevant molecules regulated by Compound 1 in a mixed lymphoid population in vitro, without specifying the order of tissue-specific expression in vivo.

CC=C(C)C(=O)OC1C(C)C2(O)C(C3OC3(CO)C(O)C3(O)C(=O)C(C)=CC32)C2C(C)(C)C12OC(=O)C(C)CC (centres unmarked) [Compound 1, 12-tigloyl-13-(2-methylbutanoyl)-6,7-epoxy-4,5,9,12,13,20-hexahydroxy-1-tigliaen-3-one]
CCL3L1: Direction of regulation (4 h): Up
CCL7: Direction of regulation (4 h): Up
CXCL2: Direction of regulation (4 h): Up
GM-CSF: Direction of regulation (4 h): Up
HBEGF: Direction of regulation (4 h): Up
KLF10: Direction of regulation (4 h): Up
MMP1: Direction of regulation (4 h): Up
MMP7: Direction of regulation (4 h): Up
MMP10: Direction of regulation (4 h): Up
MMP19: Direction of regulation (4 h): Up
TGM3: Direction of regulation (4 h): Up
THBS1: Direction of regulation (4 h): Down
THBS1: Fold change in expression (4 h, Down): −47.8 fold
CCL3L1: Fold change in expression (4 h, Up): 5.3 fold
CCL7: Fold change in expression (4 h, Up): 9.4 fold
CXCL2: Fold change in expression (4 h, Up): 3.5 fold
GM-CSF: Fold change in expression (4 h, Up): 4.3 fold
HBEGF: Fold change in expression (4 h, Up): 2.7 fold
KLF10: Fold change in expression (4 h, Up): 5.9 fold
MMP1: Fold change in expression (4 h, Up): 3.1 fold
MMP7: Fold change in expression (4 h, Up): 3.5 fold
MMP10: Fold change in expression (4 h, Up): 3.2 fold
MMP19: Fold change in expression (4 h, Up): 11.6 fold
TGM3: Fold change in expression (4 h, Up): 2.3 fold
CCL1: Direction of regulation (24 h): Up
CCL3: Direction of regulation (24 h): Up
CCL3L1: Direction of regulation (24 h): Up
CCL7: Direction of regulation (24 h): Up
CSF1: Direction of regulation (24 h): Up
CXCL1: Direction of regulation (24 h): Up
CXCL2: Direction of regulation (24 h): Up
CXCL5: Direction of regulation (24 h): Up
CXCL7: Direction of regulation (24 h): Up
CXCL13: Direction of regulation (24 h): Up
GM-CSF: Direction of regulation (24 h): Up
HBEGF: Direction of regulation (24 h): Up
IL1α: Direction of regulation (24 h): Up
IL1β: Direction of regulation (24 h): Up
IL6: Direction of regulation (24 h): Up
IL10: Direction of regulation (24 h): Up
IL24: Direction of regulation (24 h): Up
KLF10: Direction of regulation (24 h): Up
MMP1: Direction of regulation (24 h): Up
MMP7: Direction of regulation (24 h): Up
MMP9: Direction of regulation (24 h): Down
MMP10: Direction of regulation (24 h): Up
MMP19: Direction of regulation (24 h): Up
TGM2: Direction of regulation (24 h): Up
TGM3: Direction of regulation (24 h): Up
TGM5: Direction of regulation (24 h): Down
THBS1: Direction of regulation (24 h): Down
TIMP2: Direction of regulation (24 h): Down
MMP9: Fold change in expression (24 h, Down): −22.9 fold
TGM5: Fold change in expression (24 h, Down): −3.3 fold
THBS1: Fold change in expression (24 h, Down): −101.5 fold
TIMP2: Fold change in expression (24 h, Down): −10.9 fold
CCL1: Fold change in expression (24 h, Up): 39.8 fold
CCL3: Fold change in expression (24 h, Up): 56.9 fold
CCL3L1: Fold change in expression (24 h, Up): 72.3 fold
CCL7: Fold change in expression (24 h, Up): 54.5 fold
CSF1: Fold change in expression (24 h, Up): 5.1 fold
CXCL1: Fold change in expression (24 h, Up): 15.5 fold
CXCL2: Fold change in expression (24 h, Up): 73.5 fold
CXCL5: Fold change in expression (24 h, Up): 8.1 fold
CXCL7: Fold change in expression (24 h, Up): 17.5 fold
CXCL13: Fold change in expression (24 h, Up): 2.2 fold
GM-CSF: Fold change in expression (24 h, Up): 34.6 fold
HBEGF: Fold change in expression (24 h, Up): 5.1 fold
IL1α: Fold change in expression (24 h, Up): 14.6 fold
IL1β: Fold change in expression (24 h, Up): 15.4 fold
IL6: Fold change in expression (24 h, Up): 33.1 fold
IL10: Fold change in expression (24 h, Up): 2.1 fold
IL24: Fold change in expression (24 h, Up): 4.6 fold
KLF10: Fold change in expression (24 h, Up): 9.3 fold
MMP1: Fold change in expression (24 h, Up): 4.2 fold
MMP7: Fold change in expression (24 h, Up): 7.4 fold
MMP10: Fold change in expression (24 h, Up): 52 fold
MMP19: Fold change in expression (24 h, Up): 2.6 fold
TGM2: Fold change in expression (24 h, Up): 12.2 fold
TGM3: Fold change in expression (24 h, Up): 28.4 fold
CCL1: Direction of regulation (96 h): Up
CCL3L1: Direction of regulation (96 h): Up
CCL7: Direction of regulation (96 h): Up
CXCL5: Direction of regulation (96 h): Up
CXCL7: Direction of regulation (96 h): Up
CXCL13: Direction of regulation (96 h): Up
GM-CSF: Direction of regulation (96 h): Up
MMP7: Direction of regulation (96 h): Up
TGM2: Direction of regulation (96 h): Up
CCL1: Fold change in expression (96 h, Up): 42.6 fold
CCL3L1: Fold change in expression (96 h, Up): 4.2 fold
CCL7: Fold change in expression (96 h, Up): 4.8 fold
CXCL5: Fold change in expression (96 h, Up): 15.1 fold
CXCL7: Fold change in expression (96 h, Up): 37.4 fold
CXCL13: Fold change in expression (96 h, Up): 23.5 fold
GM-CSF: Fold change in expression (96 h, Up): 6 fold
MMP7: Fold change in expression (96 h, Up): 117.3 fold
TGM2: Fold change in expression (96 h, Up): 4.4 fold
